Here are results for 4 molecules from ChEMBL document CHEMBL3044746, “Molecular modeling and pharmacophore approach for structural requirements of some 2-substituted-1-naphthols derivatives as potent 5-lipoxygenase inhibitors” (Med Chem Res, 2013).

For this assay, the target named is T1, Polyunsaturated fatty acid 5-lipoxygenase (Rattus norvegicus, UniProt P12527).
T1 sequence (P12527 whole entry): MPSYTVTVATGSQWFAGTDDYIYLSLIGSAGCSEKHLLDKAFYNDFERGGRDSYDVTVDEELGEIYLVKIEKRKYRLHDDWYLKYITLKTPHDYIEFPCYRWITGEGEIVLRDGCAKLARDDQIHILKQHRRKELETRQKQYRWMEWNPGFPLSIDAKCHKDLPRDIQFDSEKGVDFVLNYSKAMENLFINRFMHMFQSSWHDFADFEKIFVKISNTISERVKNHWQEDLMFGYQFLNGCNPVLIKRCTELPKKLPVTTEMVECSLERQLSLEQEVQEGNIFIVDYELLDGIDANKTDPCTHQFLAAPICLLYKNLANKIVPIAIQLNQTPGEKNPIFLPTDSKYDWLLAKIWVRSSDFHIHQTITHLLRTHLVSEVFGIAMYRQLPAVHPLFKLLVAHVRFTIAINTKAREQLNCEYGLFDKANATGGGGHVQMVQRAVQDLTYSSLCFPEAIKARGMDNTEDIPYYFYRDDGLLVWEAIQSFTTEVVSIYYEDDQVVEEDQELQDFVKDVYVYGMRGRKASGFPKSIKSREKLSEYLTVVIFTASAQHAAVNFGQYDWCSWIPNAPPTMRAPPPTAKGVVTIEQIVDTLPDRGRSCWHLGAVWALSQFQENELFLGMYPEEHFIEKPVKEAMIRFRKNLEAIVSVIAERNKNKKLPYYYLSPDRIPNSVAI
As to the kind of experiment: Inhibition of 5-lipoxygenase in Rattus norvegicus Rat basophil leukemia cells (RBL) cells.

Broadly, the IC50 is the concentration that gives 50% inhibition. High values mean a need for much substance, low ones inhibition by little substance.

The molecule `O=C(Oc1ccccc1)c1cc(Cc2ccccc2)c(O)c2ccccc12` displayed an IC50 of 160 nM.

As to `Oc1c(/C=C/c2ccccc2)ccc2ccccc12`, the 50% inhibitory concentration (IC50) amounted to 160 nM.

On to `CCc1ccc2ccccc2c1O`, for which the IC50 was 180 nM.

With `CCOc1ccccc1Cc1ccc2ccccc2c1O`, the IC50 is 57 nM.
